The results in this text go back to patent publication US20230391776A1, “AMIDE OXAZOLE COMPOUND” (MEDSHINE DISCOVERY INC., priority 2020, published 2023).

Data set [1] concerns TNF-α production in THP-1 cells. Kind of data set: TNF-α ELISA in LPS-stimulated THP-1 cells. It counts as cell-based. The settings on record: Homo sapiens, TNF-α in supernatant, 150 ng/mL LPS, 18 hours. As for the experimental part:
THP-1 human acute single cell leukemia cells were purchased from ATCC (Cat #TIB-202) and cultured at 37° C. in 5% CO2 incubator. The composition of medium was RPMI1640 (Gibco, Cat #22400-105), and the supplementary compositions were 10% FBS (Gibco, Cat #10091148); 1% PenStrep (Gibco, Cat #15140); 0.05 mM β-mercaptoethanol (Sigma, Cat #M6250).
TNF-α Elisa kit was used to detect the content of TNF-α in cell culture supernatant samples. TNF-α was produced by stimulating THP-1 cells with 150 ng/mL LPS (Sigma, Cat #L6529).
THP-1 cells cultured normally at logarithmic growth period were seeded in a 96-well plate (Corning #3599) at a certain concentration (1*10^5/100 μL) and then put into a cell incubator for incubation. After two hours, 16.7 μL of different concentrations of the compound to be tested (8*final concentration) were added and incubated in an incubator. After one hour, 16.7 μL of 1200 ng/mL LPS was added and incubated in an incubator. After 18 hours, the culture supernatant samples were collected by centrifugation, and the content of TNF-α could be detected by TNF-α Elisa kit. Finally, OD signals (OD450-OD570) were read on envision board reader.
The OD450-OD570 signal value was converted into a percentage inhibition rate.
Inhibition rate %=(ZPE−sample)/(ZPE−HPE)*100.
“HPE” referred to the OD450-OD570 signal value of the control well without LPS stimulated cells, and “ZPE” referred to the OD450-OD570 signal value of the control well with LPS stimulated cells. The IC50 value of the compound was calculated by XLFit in the excel add-in.
Y=Bottom+(Top−Bottom)/(1+(IC50/X)^HillSlope). Equation: […]

The test system of another data set is OCI-LY3 cell line. Nature of the data set: OCI-LY3 cell proliferation (CTG). It counts as cell-based. The settings on record: Homo sapiens, 72 hours. As for the experimental part: The tumor cell line OCI-LY3 was used to detect the effect of the compound of the disclosure on inhibiting tumor cell proliferation in vitro.
The tumor cell line used in this experiment was provided by Nanjing Cobioer Biotechnology Co., Ltd. See Table 6 below for specific information.
The OCI-LY3 cell line was cultured in the corresponding medium at 37° C. and 5% CO2, and the logarithmic growth period cells were used for experimental planking. The cells were collected and centrifuged at 800 rpm for 5 minutes, and the culture medium was re-suspended and spread in a 96-well plate. After being cultured overnight in 37° C., 5% CO2 incubator, drugs with different concentration gradients (10 μL of prepared diluent of test compound was added) were added, and incubated in 37° C., 5% CO2 incubator for 72 hours. The cell culture plate was incubated with CTG reagent at room temperature in the dark for 30 minutes and return to room temperature. CTG solution was added into the biosafety cabinet in the dark 100 μL/well, and was shaken and mixed evenly on plate shaker in the dark for 2 minutes, and incubated at room temperature in the dark for 10 minutes. The luminous value was read and recorded with Perkin Elmer Envision instrument.
The luminous value of the blank control group was subtracted from the luminous value measured at each drug concentration, the ratio of this value to DMSO group was taken as the cell inhibition rate (%). GraphPad software was used, the logarithm of drug concentration (log drug concentration) versus inhibition rate was plotted, and the IC50 value and 95% confidence value were automatically fitted and calculated by log (inhibitor) vs. response-variable slop (four parameters) algorithm of nonlinear regression by software.

Data set [2] is described as follows: Pharmacokinetic study of mice. It counts as in vivo. The settings on record: mouse, plasma, CD-1 male mice; for Vd / AUC(0-t) / clearance / half-life: IV 3 mg/kg; for Vd: read-out: Apparent volume of distribution Vdss; for AUC(0-t): read-out: Area under the plasma concentration-time curve AUC0-24h; for clearance: read-out: Clearance rate CL; for half-life: read-out: Half-life T1/2 (converted); for bioavailability / AUC / Cmax / Tmax: PO 10 mg/kg; for AUC: read-out: Area under the plasma concentration-time curve AUC; for Cmax: read-out: Peak concentration Cmax; for Tmax: read-out: Peak time Tmax. As for the experimental part: The purpose of this experiment was to study the pharmacokinetics of the test compound in the plasma of CD-1 male mice after intravenous injection and oral administration.
Intravenous injection group: the tested compound was weighed and dissolved with 5% DMSO/10% Solutol/85% H2O, and the pH was adjusted to 4-5 with 6M hydrochloric acid, and a clear solution of 1.5 mg/mL was prepared by vortex, which was filtered by 0.22 m microporous membrane for later use. CD-1 male mice from 6 to 10 weeks old were selected and the test compound solution was injected intravenously at a dose of 3 mg/kg. The sample collection time was: 0.083, 0.25, 0.5, 1, 2, 4, 6, 8, 24 hours.
Oral administration group: the tested compound was weighed and dissolved with 5% DMSO/10% Solutol/85% H2O, the pH was adjusted to 3-4 with 6M hydrochloric acid, and a clear solution of 2.0 mg/mL was prepared by vortex for later use. CD-1 male mice from 6 to 10 weeks old were selected and the test compound was administered orally at a dose of 10 mg/kg. The sample collection time was: 0.25, 0.5, 1, 2, 4, 6, 8, 10, 24 hours.
Approximately 50 μL of whole blood was collected through the jugular vein at each time point for plasma preparation for concentration determination by high performance liquid chromatography-tandem mass spectrometry (LC-MS/MS). All animals were euthanized by CO2 anesthesia after collecting PK samples at the last time point. The non-atrioventricular model of WinnonLin™ Version 6.3 (Pharsight, Mountain View, CA) pharmacokinetic software was used to process the plasma concentration, and the pharmacokinetic parameters were calculated by linear logarithmic trapezoid method.

Structures are written as SMILES.

For `Cc1cc(-c2nc(C(=O)Nc3cn4cc(C(C)(C)O)nc4cc3-c3ccccc3)co2)ccn1` [WX009], the IC50 in data set [1] worked out at 0.06 µM. This compound also gave an IC50 in the data set with OCI-LY3 cell line of 0.121 µM. Further, in data set [2], the Vd was determined as 1.5 L/kg, the AUC(0-t) worked out at 17.9 µM·h, the clearance was found to be 5.9 mL/min/kg and the half-life is 8.1 h. Besides, in data set [2], the bioavailability was determined as 78%, the AUC came to 48 µM·h, the Cmax turned out to be 17.8 µM and the Tmax stood at 0.5 h.

Turning to `CC(C)(O)c1cn2cc(NC(=O)c3coc(-c4ccnc(N)c4)n3)c(-c3ccccc3)cc2n1` [WX017], it took 0.0159 µM to reach half-maximal inhibition in data set [1] (IC50). For the same compound, the IC50 in the data set with OCI-LY3 cell line turned out to be 0.018 µM. In data set [2], the Vd was determined as 0.5 L/kg, the AUC(0-t) turned out to be 7.67 µM·h, the clearance came out at 15.1 mL/min/kg and the half-life was 2.3 h. In data set [2], the bioavailability is 41%, the AUC was 10.4 µM·h, the Cmax was found to be 6.52 µM and the Tmax is 0.8 h.

`CC(C)(O)c1cn2cc(NC(=O)c3coc(-c4ccnc(N)c4F)n3)c(-c3ccccc3)cc2n1` [WX027] yielded an IC50 in data set [1] of 0.0419 µM. For the same compound, the IC50 with OCI-LY3 cell line was determined as 0.048 µM. For the same compound, in data set [2], the Vd stood at 0.8 L/kg, the AUC(0-t) was 3.77 µM·h, the clearance was 28.2 mL/min/kg and the half-life was 1.9 h. In data set [2], the bioavailability is 64%, the AUC was found to be 8.08 µM·h, the Cmax amounted to 4.93 µM and the Tmax is 0.3 h.
